Laboratory results taken from patent publication US20110230471A1, “BENZONAPHTYRIDINE COMPOUNDS AS INHIBITORS OF AUTOTAXIN” (MERCK PATENT GESELLSCHAFT MIT BESCHRANKTER HAFTUNG, priority 2008, published 2011).

Target: T1, recombinant autotaxin (Homo sapiens, UniProt Q13822)
T1 construct: made in house; host or cells: Hi5 insect cells (baculovirus)
Experiment: Autotaxin test (enzyme test), Amplex Red
Format: biochemical
Settings: Autotaxin inhibition (enzyme test), substrate LPC 75 μM
Method: The autotaxin activity is measured indirectly using Amplex Red reagent. Amplex Red is measured here as fluorogenic indicator for the H2O2 formed. In detail, autotaxin converts the substrate lysophosphatidylcholine (LPC) into phosphocholine and lysophosphatidylic acid (LPA). After this reaction, the phosphocholine is reacted with alkaline phosphatase to give inorganic phosphate and choline. In the next step, choline is oxidised by choline oxidase to give betaine, with formation of H2O2. H2O2 reacts with Amplex Red reagent in the presence of peroxidase (horseradish peroxidase) in a 1:1 stoichiometry and forms the highly fluorescent resorufin. The fluorescence is measured in a reaction-dependent kinetic mode in order that fluorescent signals from possible other fluorescent substances which are not involved in the reaction can be corrected out.
1.5 μl of a standard solution or of the test substances (substances with the name A(n))in individual concentrations dissolved in 20 mM Hepes pH 7.2 with a maximum of 7.7% of DMSO are pre-incubated together with 10 μl (16 ng) of highly purified recombinant autotaxin in a black microtitre plate provided with 384 wells at 22° C. for 30 min. The reaction is then initiated by addition of 5 μl of L-α-lysophosphatidylcholine (LPC), where the final concentration of LPC is 75 μM. The mixture is incubated at 37° C. for 90 min. After the incubation, Amplex Red reagent, peroxidase (horseradish peroxidase) and choline oxidase is added, and the fluorescence is immediately measured at 612 nm with excitation of 485 nm in a “Tecan Ultra multimode” reader. The activity of autotaxin is calculated indirectly via detection of the H2O2 formed.
• Microtitre plate: PS microplate, 384 wells, small volume, black Corning, Cat#3677 • Protein: recombinant autotaxin (Baculovirale Hi5 Expression) • Substrate: L-α-lysophosphatidylcholine (chicken egg)); Avanti Polar Lipids # 830071 P • Standard: C14 LPA, Avanti Polar Lipids, Cat# 857120P • Detection reagent: Amplex Red reagent; Invitrogen # A12222; dissolved in 1.923 ml of DMSO peroxidase type VI-A (horseradish) from Sigma # P6782; dissolved in 7.45 ml of test buffer, choline oxidase; Sigma # C5896; dissolved in 2.47 ml of test buffer • Detection reagent mix: 1:100 dilution of Amplex Red reagent in test buffer • Test buffer: 200 mM Tris HCl, Merck, Cat # 1.08219, pH 7.9, 0.1% of BSA, lipid-free, Roche Cat#775835

SMILES | IC50 (TABLE 1 (A compounds)) | IC50 (TABLE 2 (B compounds))
CN1CCN(C(=O)c2c3c(nc4ccccc24)CCN(C(=O)CCc2ccc(Cl)cc2Cl)C3)CC1 [Compound A31, 3-(2,4-dichlorophenyl)-1-[10-(4-methylpiperazine-1-carbonyl)-3,4-dihydro-1H-benzo[b][1,6]naphthyridin-2-yl]propan-1-one] | > 1000 nM | –
CSc1ccc(Cl)cc1NC(=O)CN1CCc2nc3ccccc3c(C(=O)N3CCN(CCO)CC3)c2C1 [Compound B17, N-(5-Chloro-2-methylsulfanylphenyl)-2-{10-[4-(2-hydroxyethyl)piperazine-1-carbonyl]-3,4-dihydro-1H-benzo[b][1,6]naphthyridin-2-yl}acetamide] | – | > 1000 nM
COc1ccc(Cl)cc1NC(=O)CN1CCc2nc3c(Br)cccc3c(C(=O)N3CCOCC3)c2C1 [Compound A40, 2-[6-Bromo-10-(morpholine-4-carbonyl)-3,4-dihydro-1H-benzo[b][1,6]naphthyridin-2-yl]-N-(5-chloro-2-methoxyphenyl)acetamide] | 100 to 1000 nM | –
CCOc1ccc(Cl)cc1NC(=O)CN1CCc2nc3ccccc3c(C(=O)N3CCOCC3)c2C1 [Compound A41, N-(5-Chloro-2-ethoxyphenyl)-2-[10-(morpholine-4-carbonyl)-3,4-dihydro-1H-benzo[b][1,6]naphthyridin-2-yl]acetamide] | > 1000 nM | –
COc1c(Cl)cc(Cl)cc1NC(=O)CN1CCc2nc3ccccc3c(C(=O)N3CCN(CCO)CC3)c2C1 [Compound A80, N-(3,5-Dichloro-2-methoxyphenyl)-2-{10-[4-(2-hydroxyethyl)piperazine-1-carbonyl]-3,4-dihydro-1H-benzo[b][1,6]naphthyridin-2-yl}acetamide] | 100 to 1000 nM | –
COc1ccccc1NC(=O)CN1CCc2nc3ccccc3c(C(=O)N3CCOCC3)c2C1 [Compound A10, N-(2-Methoxyphenyl)-2-[10-(morpholine-4-carbonyl)-3,4-dihydro-1H-benzo-[b][1,6]naphthyridin-2-yl]acetamide] | > 1000 nM | –
CCOc1ncc(Cl)cc1NC(=O)CN1CCc2nc3ccccc3c(C(=O)N3CCOCC3)c2C1 [Compound A52, N-(5-Chloro-2-ethoxypyridin-3-yl)-2-[10-(morpholine-4-carbonyl)-3,4-dihydro-1H-benzo[b][1,6]naphthyridin-2-yl]acetamide] | > 1000 nM | –
COc1ccc(Cl)cc1NC(=O)CN1CCc2nc3ccccc3c(C(=O)N3CCN(CCN4CCOCC4)CC3)c2C1 [Compound A68, N-(5-Chloro-2-methoxyphenyl)-2-{10-[4-(2-morpholin-4-ylethyl)piperazine-1-carbonyl]-3,4-dihydro-1H-benzo[b][1,6]naphthyridin-2-yl}acetamide] | < 100 nM | –
COc1ccc(Cl)cc1NC(=O)CN1CCc2nc3c(Cl)cccc3c(C(=O)N3CCOCC3)c2C1 [Compound A16, N-(5-Chloro-2-methoxyphenyl)-2-[6-chloro-10-(morpholine-4-carbonyl)-3,4-dihydro-1H-benzo[b][1,6]naphthyridin-2-yl]acetamide] | 100 to 1000 nM | –
O=C(CN1CCc2nc3ccccc3c(C(=O)N3CCOCC3)c2C1)Nc1cc(Cl)cc2ccoc12 [Compound A48, N-(5-Chlorobenzofuran-7-yl)-2-[10-(morpholine-4-carbonyl)-3,4-dihydro-1H-benzo[b][1,6]naphthyridin-2-yl]acetamide] | 100 to 1000 nM | –
COc1ccc(Cl)cc1NC(=O)CN1CCc2nc3ccccc3c(C(=O)NC3CCOCC3)c2C1 [Compound B43, N-(Tetrahydropyran-4-yl)-2-[(5-chloro-2-methoxyphenylcarbamoyl)methyl]-1,2,3,4-tetrahydrobenzo[b][1,6]naphthyridine-10-carboxamide] | – | 100 to 1000 nM
CCNC(=O)c1c2c(nc3ccccc13)CCN(Cc1nnc(-c3cc(Cl)ccc3OC)o1)C2 [Compound B32, N-Ethyl-2-[5-(5-chloro-2-methoxyphenyl)-1,3,4-oxadiazol-2-ylmethyl]-1,2,3,4-tetrahydrobenzo[b][1,6]naphthyridine-10-carboxamide] | – | > 1000 nM
O=C(CN1CCc2nc3ccccc3c(C(=O)N3CCN(CCO)CC3)c2C1)Nc1cccc(-c2ccccc2)c1 [Compound B21, N-Biphenyl-3-yl-2-{10-[4-(2-hydroxyethyl)piperazine-1-carbonyl]-3,4-dihydro-1H-benzo[b][1,6]naphthyridin-2-yl}acetamide] | – | > 1000 nM
Cc1ccc(Cl)cc1NC(=O)CN1CCc2nc3ccccc3c(C(=O)N3CCOCC3)c2C1 [Compound A11, N-(5-Chloro-2-methylphenyl)-2-[10-(morpholine-4-carbonyl)-3,4-dihydro-1H-benzo[b][1,6]naphthyridin-2-yl]acetamide] | > 1000 nM | –
O=C(CN1CCc2nc3ccccc3c(C(=O)N3CCN(CCO)CC3)c2C1)Nc1ccc(F)c(Cl)c1 [Compound A74, N-(3-Chloro-4-fluorophenyl)-2-{10-[4-(2-hydroxyethyl)piperazine-1-carbonyl]-3,4-dihydro-1H-benzo[b][1,6]naphthyridin-2-yl}acetamide] | > 1000 nM | –
COc1ccc(Cl)cc1NC(=O)CN1CCc2nc3ccccc3c(C(=O)N3CCOCC3)c2C1 [Compound A7, N-(5-chloro-2-methoxyphenyl)-2-[10-(morpholine-4-carbonyl)-3,4-dihydro-1H-benzo[b][1,6]naphthyridin-2-yl]acetamide] | < 100 nM | –
O=C(CN1CCc2nc3ccccc3c(C(=O)N3CCN(CCO)CC3)c2C1)Nc1cc(Cl)ccc1F [Compound A78, N-(5-Chloro-2-fluorophenyl)-2-{10-[4-(2-hydroxyethyl)piperazine-1-carbonyl]-3,4-dihydro-1H-benzo[b][1,6]naphthyridin-2-yl}acetamide] | 100 to 1000 nM | –
O=C(CN1CCc2nc3ccccc3c(C(=O)N3CCOCC3)c2C1)Nc1cc(Cl)ccc1OCCO [Compound A54, N-[5-Chloro-2-(2-hydroxyethoxy)phenyl]-2-[10-(morpholine-4-carbonyl)-3,4-dihydro-1H-benzo[b][1,6]naphthyridin-2-yl]acetamide] | 100 to 1000 nM | –
COc1ccc(Cl)cc1NC(=O)CN1CCc2nc3ccccc3c(C(=O)N3CCN(CCN(C)C)CC3)c2C1 [Compound A67, N-(5-Chloro-2-methoxyphenyl)-2-{10-[4-(2-dimethylaminoethyl)piperazine-1-carbonyl]-3,4-dihydro-1H-benzo[b][1,6]naphthyridin-2-yl}acetamide] | < 100 nM | –
COc1c(F)cc(-c2ccc(N)cc2)cc1NC(=O)CN1CCc2nc3ccccc3c(C(=O)N3CCOCC3)c2C1 [Compound B35, N-(4′-Amino-5-fluoro-4-methoxybiphenyl-3-yl)-2-[10-(morpholine-4-carbonyl)-3,4-dihydro-1H-benzo[b][1,6]naphthyridin-2-yl]acetamide] | – | > 1000 nM
CN1CCN(C(=O)c2c3c(nc4ccccc24)CCN(C(=O)CCc2ccc(Cl)cc2F)C3)CC1 [Compound A33, 3-(4-Chloro-2-fluorophenyl)-1-[10-(4-methylpiperazine-1-carbonyl)-3,4-dihydro-1H-benzo[b][1,6]naphthyridin-2-yl]propan-1-one] | > 1000 nM | –
CCN1CCN(C(=O)c2c3c(nc4ccccc24)CCN(CC(=O)Nc2cc(Cl)ccc2OC)C3)CC1 [Compound A23, N-(5-Chloro-2-methoxyphenyl)-2-[10-(4-ethylpiperazine-1-carbonyl)-3,4-dihydro-1H-benzo[b][1,6]naphthyridin-2-yl]acetamide] | < 100 nM | –
COc1ccc(Cl)cc1-c1nc(CN2CCc3nc4ccccc4c(C(=O)NC4CCN(C)CC4)c3C2)no1 [Compound B20, N-(1-Methylpiperidin-4-yl)-2-[5-(5-chloro-2-methoxyphenyl)-1,2,4-oxadiazol-3-ylmethyl]-1,2,3,4-tetrahydrobenzo[b][1,6]naphthyridine-10-carboxamide] | – | > 1000 nM
COc1ccc(Cl)cc1N(C)C(=O)CN1CCc2nc3ccccc3c(C(=O)N3CCOCC3)c2C1 [Compound A87, N-(5-Chloro-2-methoxyphenyl)-N-methyl-2-[10-(morpholine-4-carbonyl)-3,4-dihydro-1H-benzo[b][1,6]naphthyridin-2-yl]acetamide] | 100 to 1000 nM | –
COc1ccc(Cl)cc1NC(=O)CN1CCc2nc3ccccc3c(C(=O)NC3CCCNC3=O)c2C1 (stereo not shown) [Compound B47, N-(2-Oxopiperidin-3-yl)-2-[(5-chloro-2-methoxyphenylcarbamoyl)methyl]-1,2,3,4-tetrahydrobenzo[b][1,6]naphthyridine-10-carboxamide] | – | 100 to 1000 nM
